Experimental data from patent US20200345776A1, “CELL” (AUTOLUS LIMITED, priority 2017, published 2020).

What was measured:
Adenosine A2AR receptor = Adenosine A2AR receptor (Homo sapiens, UniProt P29274); details: cited from earlier work
SKOV3 cells [1] = details: positive control of cell killing/inhibition, 10 ug/ml; cited from earlier work
cancer cells = details: cited from earlier work
SKOV3 cells [2] = experiment: Co-culture of violacein-producing SupT1 cells with SKOV3 cells, live cell imaging; format: cell-based, human; details: FIG. 12, co-culture
Method: The following day the indicated supT1 cells were added to the SKOV3 cells at density of 20,000 cells per well in a total volume of 200 ul cell culture medium. Cells were continuously monitored in a Incycute live cell imager and the number of viable SKOV3 cells enumerated every hour by counting the presence of red fluorescent nuclei.

MOLT-4 leukaemia = details: cited from earlier work
[3] = tested on: NCI-H460 non-small-cell lung cancer; details: cited from earlier work
[4] = tested on: KM12 colon-cancer cell lines; details: cited from earlier work

Adenosine A2AR receptor, sequence (P29274 whole entry): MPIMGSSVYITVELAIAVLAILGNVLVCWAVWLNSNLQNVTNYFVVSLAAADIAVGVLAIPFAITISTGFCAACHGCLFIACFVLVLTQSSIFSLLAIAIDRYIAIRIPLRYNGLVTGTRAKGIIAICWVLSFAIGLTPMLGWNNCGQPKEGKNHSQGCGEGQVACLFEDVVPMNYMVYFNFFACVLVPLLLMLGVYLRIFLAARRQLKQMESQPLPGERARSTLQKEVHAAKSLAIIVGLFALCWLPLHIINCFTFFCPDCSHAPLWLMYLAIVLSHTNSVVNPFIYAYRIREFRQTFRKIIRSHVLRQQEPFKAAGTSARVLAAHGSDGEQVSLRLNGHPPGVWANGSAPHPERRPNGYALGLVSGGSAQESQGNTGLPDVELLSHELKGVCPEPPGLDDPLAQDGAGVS

Cn1c(=O)c2c(ncn2C)n(C)c1=O [Caffeine]
Action on Adenosine A2AR receptor expressed on T cells (Adenosine A2AR receptor): known antagonist

COc1cc([C@@H]2c3cc4c(cc3[C@@H](O[C@@H]3O[C@@H]5CO[C@@H](C)O[C@H]5[C@H](O)[C@H]3O)[C@H]3COC(=O)[C@H]23)OCO4)cc(OC)c1O [Etoposide]
Apoptosis of SKOV3 cells (SKOV3 cells [1]): induces the apoptosis

CC(C)=CCC/C(C)=C/CO [Geraniol]
Effect against cancer cells in vitro (cancer cells): anti-proliferative/pro-apoptotic effect

O=C1NC(c2c[nH]c3ccc(O)cc23)=C/C1=C1\C(=O)Nc2ccccc21 [Violacein]
Toxicity of violacein produced by SupT1 cells to SKOV3 tumour cells (SKOV3 cells [2]): toxic
Activity against MOLT-4 leukaemia (MOLT-4 leukaemia): has activity
Activity against NCI-H460 non-small-cell lung cancer [3]: has activity
Activity against KM12 colon-cancer cell lines [4]: has activity
